From ChEMBL document CHEMBL1201862, “PubChem BioAssay data set” (2004)
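Where inhibition never reached the appropriate level, the endpoint shown equals the highest concentration tested. Otherwise, values were interpolated linearly from a five-concentration, 48-hour dose response in 96-well plates. GI50 = concentration required for 50% inhibition of growth.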 Active and inactive are the calls of the source. Cut-off read from the data, not from the text of the source: active = GI50 up to about 1.1 µM and inactive = higher.

Experiments:
Test in all cases: growth of human tumour cells (NCI), 48 h
CAKI-1 = test system: CAKI-1
HCT-116 = test system: HCT-116
IGROV-1 = test system: IGROV-1
SF-268 = test system: SF-268
OVCAR-4 = test system: OVCAR-4
HCC 2998 = test system: HCC 2998
UO-31 = test system: UO-31
U-251 = test system: U-251
OVCAR-3 = test system: OVCAR-3
SNB-19 = test system: SNB-19
EKVX = test system: EKVX
RPMI-8226 = test system: RPMI-8226
HT-29 = test system: HT-29
HOP-62 = test system: HOP-62
MDA-MB-435 = test system: MDA-MB-435
SF-295 = test system: SF-295
NCI-H460 = test system: NCI-H460
Hs-578T = test system: Hs-578T
CCRF-CEM = test system: CCRF-CEM

Measured: GI50

N#CNC(=N)Nc1ccc(Cl)cc1
inactive: CAKI-1 > 100 µM | HCT-116 > 100 µM | IGROV-1 > 100 µM | SF-268 > 100 µM | OVCAR-4 > 100 µM | HCC 2998 > 100 µM | UO-31 > 100 µM | U-251 > 100 µM | OVCAR-3 > 100 µM | SNB-19 > 100 µM | EKVX > 100 µM | RPMI-8226 > 100 µM | HT-29 > 100 µM | HOP-62 > 100 µM | MDA-MB-435 > 100 µM | SF-295 > 100 µM | NCI-H460 > 100 µM | Hs-578T > 100 µM

OCCNCCN1CCN(CCCN2c3ccccc3Sc3ccc(C(F)(F)F)cc32)CC1
inactive: CAKI-1 76.2 µM | CCRF-CEM > 100 µM | HCT-116 17.9 µM | IGROV-1 > 100 µM | SF-268 24.5 µM | OVCAR-4 25.8 µM | HCC 2998 27.4 µM | U-251 20.3 µM | OVCAR-3 22.7 µM | SNB-19 24.7 µM | EKVX 28.1 µM | RPMI-8226 > 100 µM | HT-29 14 µM | HOP-62 21.4 µM | MDA-MB-435 18.8 µM | SF-295 20.4 µM | NCI-H460 23.2 µM | Hs-578T 47.3 µM

CCCCCCCCOCC1S(=O)(=O)OCCOS1(=O)=O
inactive: CAKI-1 > 100 µM | CCRF-CEM > 100 µM | HCT-116 > 100 µM | IGROV-1 > 100 µM | SF-268 > 100 µM | OVCAR-4 > 100 µM | HCC 2998 > 100 µM | UO-31 > 100 µM | U-251 > 100 µM | OVCAR-3 > 100 µM | SNB-19 > 100 µM | EKVX > 100 µM | RPMI-8226 > 100 µM | HT-29 > 100 µM | HOP-62 > 100 µM | MDA-MB-435 > 100 µM | SF-295 > 100 µM | NCI-H460 > 100 µM | Hs-578T > 100 µM

O=[N+]([O-])C(/C(Cl)=C(/Cl)N1CCOCC1)=C1\NCCO1
inactive: CAKI-1 > 100 µM | CCRF-CEM > 100 µM | HCT-116 > 100 µM | SF-268 > 100 µM | OVCAR-4 > 100 µM | HCC 2998 > 100 µM | UO-31 > 100 µM | U-251 > 100 µM | OVCAR-3 > 100 µM | SNB-19 > 100 µM | EKVX > 100 µM | RPMI-8226 > 100 µM | HT-29 > 100 µM | HOP-62 > 100 µM | MDA-MB-435 > 100 µM | SF-295 > 100 µM | NCI-H460 > 100 µM | Hs-578T > 100 µM

COc1cc2c(cc1OCc1ccccc1)NC(=O)[C@@H]1CCCN1C2=O
inactive: CAKI-1 > 100 µM | CCRF-CEM > 100 µM | HCT-116 > 100 µM | IGROV-1 58.9 µM | SF-268 > 100 µM | OVCAR-4 > 100 µM | HCC 2998 > 100 µM | UO-31 > 100 µM | U-251 > 100 µM | OVCAR-3 > 100 µM | SNB-19 > 100 µM | EKVX > 100 µM | RPMI-8226 > 100 µM | HT-29 > 100 µM | HOP-62 > 100 µM | MDA-MB-435 > 100 µM | SF-295 > 100 µM | NCI-H460 > 100 µM | Hs-578T > 100 µM

COc1cc2c(cc1OC)C(=O)N(NC1=NCCN1)C2=O
inactive: CAKI-1 > 100 µM | CCRF-CEM > 100 µM | HCT-116 > 100 µM | IGROV-1 > 100 µM | SF-268 > 100 µM | OVCAR-4 > 100 µM | HCC 2998 > 100 µM | U-251 > 100 µM | OVCAR-3 > 100 µM | SNB-19 > 100 µM | EKVX > 100 µM | RPMI-8226 > 100 µM | HT-29 > 100 µM | HOP-62 > 100 µM | MDA-MB-435 > 100 µM | SF-295 > 100 µM | NCI-H460 > 100 µM | Hs-578T > 100 µM

Cc1ccc(C(=O)/C=C(\O)C(=O)NN=C(c2ccccc2)c2ccccc2)cc1
inactive: CAKI-1 > 100 µM | CCRF-CEM 29.2 µM | HCT-116 36.5 µM | IGROV-1 62.7 µM | SF-268 > 100 µM | OVCAR-4 63.1 µM | HCC 2998 80 µM | UO-31 55.6 µM | U-251 46.2 µM | OVCAR-3 > 100 µM | SNB-19 58.9 µM | EKVX > 100 µM | RPMI-8226 26.6 µM | HT-29 > 100 µM | MDA-MB-435 > 100 µM | SF-295 66.8 µM | NCI-H460 40.6 µM | Hs-578T 56.9 µM

CCOC(=O)c1ccc(C(=O)OCC)n1-c1cc2cc(c1)CSCc1cc(cc(-n3c(C(=O)OCC)ccc3C(=O)OCC)c1)CSC2
inactive: CAKI-1 > 10 µM | CCRF-CEM > 10 µM | HCT-116 > 10 µM | IGROV-1 > 10 µM | SF-268 > 10 µM | OVCAR-4 > 10 µM | HCC 2998 > 10 µM | UO-31 > 10 µM | U-251 > 10 µM | OVCAR-3 > 10 µM | SNB-19 > 10 µM | EKVX > 10 µM | RPMI-8226 > 10 µM | HT-29 > 10 µM | HOP-62 > 10 µM | MDA-MB-435 > 10 µM | SF-295 > 10 µM | NCI-H460 > 10 µM | Hs-578T > 10 µM

CC1=C(C)SC(=C2Sc3[n-]c(=O)[nH]c(=O)c3S2)S1.CCCC[N+](CCCC)(CCCC)CCCC
inactive: CAKI-1 > 100 µM | CCRF-CEM 40.4 µM | HCT-116 > 100 µM | IGROV-1 > 100 µM | SF-268 > 100 µM | OVCAR-4 > 100 µM | HCC 2998 > 100 µM | UO-31 > 100 µM | U-251 > 100 µM | OVCAR-3 46.1 µM | SNB-19 73.1 µM | EKVX > 100 µM | RPMI-8226 > 100 µM | HT-29 > 100 µM | HOP-62 > 100 µM | MDA-MB-435 31.6 µM | SF-295 > 100 µM | NCI-H460 > 100 µM | Hs-578T > 100 µM

COc1cc(OC)c(OC)cc1/C=N/N=C(\N)NO
inactive: CAKI-1 > 100 µM | CCRF-CEM > 100 µM | HCT-116 > 100 µM | IGROV-1 > 100 µM | SF-268 > 100 µM | OVCAR-4 > 100 µM | HCC 2998 > 100 µM | UO-31 > 100 µM | U-251 > 100 µM | OVCAR-3 > 100 µM | SNB-19 > 100 µM | EKVX > 100 µM | RPMI-8226 68.9 µM | HT-29 > 100 µM | HOP-62 > 100 µM | MDA-MB-435 68.2 µM | SF-295 51.1 µM | NCI-H460 > 100 µM | Hs-578T > 100 µM

Cc1cc2ccccc2c[n+]1CC(O)C[n+]1cc2ccccc2cc1C
inactive: CAKI-1 > 100 µM | HCT-116 > 100 µM | IGROV-1 > 100 µM | SF-268 > 100 µM | OVCAR-4 > 100 µM | HCC 2998 > 100 µM | UO-31 > 100 µM | U-251 > 100 µM | OVCAR-3 51.6 µM | SNB-19 > 100 µM | EKVX > 100 µM | RPMI-8226 > 100 µM | HT-29 > 100 µM | HOP-62 82.6 µM | MDA-MB-435 > 100 µM | SF-295 20.1 µM | NCI-H460 > 100 µM | Hs-578T > 100 µM
